According to patent publication US20240376098A1, “METHODS OF TREATMENT USING BCN057, BCN077 AND ANALOGS” (BCN Biosciences L.L.C., priority 2021, published 2024):

Columns and labels:
[1] = tested on: Lgr5+ ISCs; test: Lgr5+ intestinal stem cells in 5FU treated Lgr5-Cre-ERT-GFP mice; format: in vivo; conditions: 5FU treated mice, confocal microscopic imaging
Description: 5FU is a component of FOLFIRINOX and the active agent metabolized from Capecitabine (Xeloda®). To, examine the effect of BCN057 against chemo induced toxicity in Lgr5+ ISCs, Lgr5-Cre-ERT-GFP mice were pre-treated with 5FU as reported and then subjected to BCN057 treatment.
Stains of GI crypts with green=LGR5+ stem cells. Mice were treated with 5FU and 5FU+BCN057 for 5 days. BCN057 was administered for two extra days after 5FU treatment. Small intestine samples were harvested and stained for LGR5 at 3 days after the last 5FU injection. FIG. 5D is a histogram of the quantitation by % of LGR5+ cells remaining in […] sections at the crypt base showing prevention of 5-FU induced apoptosis in LGR5+ stem cells in GI.

[2] = tested on: pancreatic ductal adenocarcinoma cells (AsPC-1, BxPC-3, MIA PaCa-2 and Panc-1); conditions: range over AsPC-1, BxPC-3, MIA PaCa-2 and Panc-1; limits printed in nM and μM; cited from earlier work
[3] = tested on: KRAS mutant G12D invasive pancreatic cancer cell lines; test: Proliferation of pancreatic cancer cell lines with analogues of BCN057; format: cell-based
[4] = tested on: PD-1 expression on human T-lymphocytes; test: Western blot of PD-1 on T-lymphocytes co-cultured with Panc-1 cells; format: cell-based; conditions: 15 minutes to 24 hours
Description: Cell lines and cell culture: Panc-1 cells were cultured in DMEM medium supplemented with 10% Fetal Bovine Serum and maintained at 37° C.5% CO2. Human Peripheral Blood Pan-T Cells were cultured in serum free T cells expansion media with 10 ng/ml of rhIL-2, T-cell activator and expanded as per the manufacturer instructions. Panc-1 cells and T-Cells were grown and expanded separately in T75 flasks. For co-culture experiments with Panc-1 cell, 2.5 million T-cells per well were plated in the well using a 6 well plate. 2.5 million Panc-1 Cells were plated in the thinsert which was placed into the well of the 6 well plate in order to have the cells physically separated but share media. The cells were incubated for 24 hours at 37° C., 5% CO2. At 24 hours the media was replaced with media containing vehicle, or 10 uM BCN057 and were incubated for the following timepoints: 1 hr, 6 hr, 12 hr, 24 hrs. The Panc-1 cells were removed by gently scraping the cells from the thinsert.
Western Blot: Cells were harvested and lysed in cell lysis buffer on ice for 15 minutes and the lysate was centrifuged at 13,000 rpm at 4° C. for 10 minutes. The supernatant was transferred into a new tube for BCA protein quantification assay (Thermo Fisher Scientific) and the samples were normalized. 3× loading buffer (Cell Signaling) was added the protein sample and boiled for 5 minutes. The samples were used for SDS-PAGE analysis and transferred to nitrocellulose membrane. The membrane was blocked with 5% BSA at room temperature for 1 hour and incubated with primary antibody at 4° C. overnight. The membrane was washed with 1×TBST 5 minutes for 3 times and incubated with horseradish peroxidase-conjugated secondary antibody for 1 hour at room temperature. The protein was visualized by SuperSignal West Pico Stable Peroxide Solution (Thermo Fisher Scientific). The blot was visualized by chemiluminescence using a BioRad Versadoc Imaging System.
BCN057 and Immune Checkpoint blockade: An emerging method of treatment for many forms of cancer, including PDAC, is immune checkpoint inhibitors. […]

[5] = tested on: human KRAS G12D mutant colorectal cancer cell line LS174T; test: Viability of LS174T colorectal cancer cells; format: cell-based; conditions: viability versus concentration
Excerpt: FIG. 9 is a graph of viability versus concentration of BCN077.

| Structure (SMILES) | Proliferation of KRAS mutant G12D invasive pancreatic cancer cell lines [3] | PD1 expression in co-culture of T-cells and Panc1 cells [4] | also measured |
| --- | --- | --- | --- |
| O=c1[nH]cc(F)c(=O)[nH]1 [5FU, 5-Fluorouracil, reference compound] | – | – | Lgr5+ ISCs in jejunal section [1]: significant loss of Lgr5+ ISCs |
| Nc1ccn([C@@H]2O[C@H](CO)[C@@H](O)C2(F)F)c(=O)n1 [gemcitabine] | – | – | IC50 [2]: 494 to 23900 nM |
| CONCCC(=O)Nc1c(-c2cc3ccc(OC)cc3[nH]c2=O)nc2c(C)cccn12 [BCN036] | inhibition of proliferation | inhibit PD1 expression over time | – |
| COc1ccc2cc(-c3nc4c(C)cccn4c3NC(=O)c3cccc(F)c3)c(=O)[nH]c2c1 [BCN077] | inhibition of proliferation | – | Activity on viability of LS174T [5]: potent activity |
| CNCCC(=O)Nc1c(-c2cc3ccc(OC)cc3[nH]c2=O)nc2c(C)cccn12.Cl [BCN076] | inhibition of proliferation | inhibit PD1 expression over time | – |
